From ChEMBL document CHEMBL1128591, “1,2-Diarylcyclopentenes as selective cyclooxygenase-2 inhibitors and orally active anti-inflammatory agents” (J Med Chem, 1995) come the findings set out here.

Experiment [1] is filed under the species Rattus norvegicus. As to the kind of experiment: animal or person. To be noted: read-out: Inhibition.
The species entered for experiment [2] is Rattus norvegicus. As to the kind of experiment: animal or person. Particulars: read-out: Inhibition. The source holds these as a separate data set.
Experiment [3] deals with Prostaglandin G/H synthase 1 (Homo sapiens, UniProt P23219).

Molecules are shown by their SMILES.

Sequence of Prostaglandin G/H synthase 1 (P23219 whole entry): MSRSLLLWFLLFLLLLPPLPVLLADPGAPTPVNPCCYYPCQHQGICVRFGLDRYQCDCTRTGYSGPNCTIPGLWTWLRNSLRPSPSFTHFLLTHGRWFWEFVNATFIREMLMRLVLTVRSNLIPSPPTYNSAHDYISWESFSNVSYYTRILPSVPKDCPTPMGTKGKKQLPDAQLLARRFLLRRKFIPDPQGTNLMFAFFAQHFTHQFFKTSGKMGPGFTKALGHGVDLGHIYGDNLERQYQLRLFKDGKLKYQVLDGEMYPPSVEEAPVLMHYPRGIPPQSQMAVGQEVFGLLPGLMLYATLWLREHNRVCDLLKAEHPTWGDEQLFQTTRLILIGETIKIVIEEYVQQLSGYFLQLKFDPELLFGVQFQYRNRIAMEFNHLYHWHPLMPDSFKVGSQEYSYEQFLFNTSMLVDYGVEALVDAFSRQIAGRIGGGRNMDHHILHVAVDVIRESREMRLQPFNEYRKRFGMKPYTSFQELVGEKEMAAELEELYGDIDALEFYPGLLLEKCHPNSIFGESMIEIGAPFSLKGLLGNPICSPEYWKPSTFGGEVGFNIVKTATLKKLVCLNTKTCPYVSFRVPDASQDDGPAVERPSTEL

`COc1ccc(C2=C(c3ccc(S(N)(=O)=O)cc3)CCC2)cc1Cl`: the inhibition in vivo at 30 mg/kg in the experiment filed under Rattus norvegicus [1] came to 32%. In addition, the inhibition in vivo at 1 mg/kg in the experiment filed under Rattus norvegicus [2] stood at 25%.

`COc1ccc(C2=C(c3ccc(S(C)(=O)=O)cc3)CCC2)cc1`: the inhibition in vivo at 30 mg/kg in the experiment filed under Rattus norvegicus [1] was 42.7%. In the experiment filed under Rattus norvegicus [2], the inhibition in vivo at 1 mg/kg was found to be 0%.

As for `CS(=O)(=O)c1ccc(C2=C(c3ccc(Cl)c(Cl)c3)CCC2)cc1`, the inhibition in vivo at 1 mg/kg in the experiment listed under Rattus norvegicus [2] is 45%.

`COc1c(Cl)cc(C2=C(c3ccc(S(C)(=O)=O)cc3)CCC2)cc1Cl` had an IC50 in experiment [3] greater than 100 µM.

`CS(=O)(=O)c1ccc(C2=C(c3ccc(F)c(C(F)(F)F)c3)CCC2)cc1` came in with an IC50 in experiment [3] greater than 100 µM.

Turning to `NS(=O)(=O)c1ccc(C2=C(c3ccc(F)cc3)CCC2)cc1`, the inhibition in vivo at 30 mg/kg in the experiment filed under Rattus norvegicus [1] was 45.3%. Moreover, the inhibition in vivo at 1 mg/kg in the experiment listed under Rattus norvegicus [2] stood at 79%.

As for `COc1ccc(C2=C(c3ccc(S(N)(=O)=O)cc3)CCC2)cc1F`, in the experiment filed under Rattus norvegicus [2], the inhibition in vivo at 1 mg/kg came out at 25%.

In experiment [3], `CS(=O)(=O)c1ccc(C2=C(c3cc(F)c(F)c(F)c3)CCC2)cc1` came in with an IC50 greater than 100 µM.

Take `NS(=O)(=O)c1ccc(C2=C(c3ccc4c(c3)OCO4)CCC2)cc1`: the IC50 in experiment [3] was determined as 1.9 µM.

`CS(=O)(=O)Nc1cc2c(cc1Sc1ccc(F)cc1F)C(=O)CC2`: the IC50 in experiment [3] was greater than 10 µM.

Compound `NS(=O)(=O)c1ccc(C2=C(c3ccc(C(F)(F)F)c(F)c3)CCC2)cc1` gave an IC50 in experiment [3] of 14.5 µM.

The compound `CN(C)c1ccc(C2=C(c3ccc(S(N)(=O)=O)cc3)CCC2)cc1Cl` returned a concentration for half-maximal inhibition (IC50) in experiment [3] of 1.8 µM.

On to `CS(=O)(=O)c1ccc(C2=C(c3ccc(Cl)cc3)CCC2)cc1`, for which the inhibition in vivo at 30 mg/kg in the experiment listed under Rattus norvegicus [1] was 49%. Also, in the experiment listed under Rattus norvegicus [2], the inhibition in vivo at 1 mg/kg was determined as 21%.

In the case of `COc1ccc(C2=C(c3ccc(S(N)(=O)=O)cc3)CCC2)cc1`, in the experiment listed under Rattus norvegicus [1], the inhibition in vivo at 30 mg/kg amounted to 10%.

In turn, `NS(=O)(=O)c1ccc(C2=C(c3ccc(F)c(Cl)c3)CCC2)cc1` returned an IC50 in experiment [3] of 5.1 µM. Further, the inhibition in vivo at 30 mg/kg in the experiment filed under Rattus norvegicus [1] is 43.3%. Moreover, the inhibition in vivo at 1 mg/kg in the experiment listed under Rattus norvegicus [2] was determined as 81.5%.

In experiment [3], `NS(=O)(=O)c1ccc(C2=C(c3cc(F)c(F)c(F)c3)CCC2)cc1` returned an IC50 greater than 100 µM.

In experiment [3], `CN(C)c1ccc(C2=C(c3ccc(S(C)(=O)=O)cc3)CCC2)cc1Cl` registered a half-maximal inhibitory concentration (IC50) of 37.7 µM.

Consider `COc1c(Cl)cc(C2=C(c3ccc(S(N)(=O)=O)cc3)CCC2)cc1Cl`, for which half-maximal inhibition in experiment [3] (IC50) required 71.6 µM.

As to `NS(=O)(=O)c1ccc(C2=C(c3ccc(Cl)c(Cl)c3)CCC2)cc1`, the inhibition in vivo at 30 mg/kg in the experiment filed under Rattus norvegicus [1] amounted to 31%. For the same compound, the inhibition in vivo at 1 mg/kg in the experiment listed under Rattus norvegicus [2] worked out at 83%.

For `CS(=O)(=O)c1ccc(C2=C(c3ccc(F)cc3)CCC2)cc1` [SC-57666], the inhibition in vivo at 30 mg/kg in the experiment listed under Rattus norvegicus [1] worked out at 45.3%. In addition, in the experiment filed under Rattus norvegicus [2], the inhibition in vivo at 1 mg/kg was determined as 29.3%.

As to `CS(=O)(=O)c1ccc(C2=C(c3ccc(F)c(Cl)c3)CCC2)cc1`, in the experiment filed under Rattus norvegicus [1], the inhibition in vivo at 30 mg/kg came to 40%.

Turning to `CS(=O)(=O)c1ccc(C2=C(c3ccc(C(F)(F)F)c(F)c3)CCC2)cc1`, the half-inhibitory concentration (IC50) in experiment [3] is greater than 100 µM.
